# From BindingDB's records for doi:10.7270/Q2B27SRF (Broad Institute, 2010)
# Biological target: Serine/threonine-protein kinase 33 (Homo sapiens, UniProt Q9BYT3)
# Test: inhibition of STK33 phosphorylation of MBP – biochemical, luminescence, cell-free, retest, dose response (AID 2821)
# Chain of Serine/threonine-protein kinase 33 (Q9BYT3 whole entry): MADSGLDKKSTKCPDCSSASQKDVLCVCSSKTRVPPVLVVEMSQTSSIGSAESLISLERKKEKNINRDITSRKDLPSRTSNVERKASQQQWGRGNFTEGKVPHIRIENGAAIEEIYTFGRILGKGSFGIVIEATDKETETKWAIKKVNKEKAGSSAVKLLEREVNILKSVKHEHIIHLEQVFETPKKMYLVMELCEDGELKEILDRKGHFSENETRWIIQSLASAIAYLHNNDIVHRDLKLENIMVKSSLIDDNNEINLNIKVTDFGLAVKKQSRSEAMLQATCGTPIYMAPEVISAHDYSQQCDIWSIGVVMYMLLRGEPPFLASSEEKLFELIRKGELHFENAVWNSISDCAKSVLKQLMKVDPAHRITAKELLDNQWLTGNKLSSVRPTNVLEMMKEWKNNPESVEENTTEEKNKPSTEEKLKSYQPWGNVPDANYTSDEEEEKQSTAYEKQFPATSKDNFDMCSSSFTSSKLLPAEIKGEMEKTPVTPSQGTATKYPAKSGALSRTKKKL
row,SMILES,EC50
1,Cc1ccc(-c2nn(CCC(=O)O)cc2/C=C\C(=O)c2ccc(Br)cc2)cc1 [3-[4-[(Z)-3-(4-bromophenyl)-3-oxoprop-1-enyl]-3-(4-methylphenyl)pyrazol-1-yl]propanoic acid],19.3 µM
2,"O=c1c(-c2c(O)cc(O)c3c2O[C@H](c2ccc(O)cc2)CC3)c(-c2ccc(O)cc2)oc2cc(O)cc(O)c12 [3-[(2S)-5,7-dihydroxy-2-(4-hydroxyphenyl)-3,4-dihydro-2H-1-benzopyran-8-yl]-5,7-dihydroxy-2-(4-hydroxyphenyl)-1-benzopyran-4-one]",> 120 µM
3,CCc1ncc(C=C2C(=O)Nc3ccccc32)[nH]1 [3-[(Z)-(2-ethyl-1H-imidazol-5-yl)methylidene]-1H-indol-2-one],5.25 µM
4,Cc1ncc(C=C2C(=O)Nc3ccccc32)[nH]1 [3-[(Z)-(2-methyl-1H-imidazol-4-yl)methylidene]-1H-indol-2-one],3.42 µM
5,CCn1c(/C=C/c2ccc([N+](=O)[O-])o2)nc2ccccc2c1=O [3-ethyl-2-[(E)-2-(5-nitro-2-furanyl)ethenyl]-4-quinazolinone],> 120 µM
6,"N#Cc1c2ccc(O)cc2n2ccccc12 [3-hydroxypyrido[1,2-a]indole-10-carbonitrile]",4.59 µM
7,"Cc1c(C(=O)OCC(=O)N2c3ccccc3CC2C)oc2ccccc12 (configuration not stated) [3-methyl-2-benzofurancarboxylic acid [2-(2-methyl-2,3-dihydroindol-1-yl)-2-oxoethyl] ester]",> 120 µM
8,Fc1ccc(-c2c[nH]cn2)cc1 [4-(4-fluorophenyl)-1H-imidazole],> 120 µM
9,"CCN(CC)c1ccc(Nc2nc(N3CCOCC3)c3ccccc3n2)cc1 [4-N,4-N-diethyl-1-N-(4-morpholin-4-ylquinazolin-2-yl)benzene-1,4-diamine]",> 120 µM
10,"CC(N=Nc1ccnc2cc(Cl)ccc12)c1ccc(O)cc1 (configuration not stated) [4-[1-[(7-chloro-4-quinolinyl)hydrazo]ethylidene]-1-cyclohexa-2,5-dienone]",22.9 µM
11,O=C1N=c2ccccc2=C1NNc1ccc(C(=O)O)cc1 [4-[2-(2-oxidanylideneindol-3-yl)hydrazinyl]benzoic acid],36.8 µM
12,"Cc1cc(C=C2C(=O)c3ccccc3C2=O)c(C)n1-c1ccc(C(=O)O)cc1 [4-[3-[(1,3-dioxo-2-indenylidene)methyl]-2,5-dimethyl-1-pyrrolyl]benzoic acid]",19.3 µM
13,"CCOc1ccc(-c2cc(CCCC(=O)NCCCOC)no2)cc1 [4-[5-(4-ethoxyphenyl)-1,2-oxazol-3-yl]-N-(3-methoxypropyl)butanamide]",> 120 µM
14,Cc1cc(C(=O)O)ccc1N=Cc1c(O)ccc2ccccc12 [4-[(2-Hydroxy-naphthalen-1-ylmethylene)-amino]-3-methyl-benzoic acid],22.7 µM
15,"Oc1ccc(CN=Nc2ccc(C(F)(F)F)cn2)cc1 [4-[[2-[5-(trifluoromethyl)pyridin-2-yl]hydrazinyl]methylidene]cyclohexa-2,5-dien-1-one]",14.1 µM
16,O=C(O)c1ccc(NC(=O)c2cccc(C(=O)Nc3ccc(C(=O)O)cc3)n2)cc1 [4-[[6-[(4-carboxyphenyl)carbamoyl]pyridin-2-yl]carbonylamino]benzoic acid],28.3 µM
17,"NC(=S)c1cn(C2OC(CO)C(O)C2O)c2ncnc(N)c12 (configuration not stated) [4-amino-7-[3,4-dihydroxy-5-(hydroxymethyl)oxolan-2-yl]pyrrolo[2,3-d]pyrimidine-5-carbothioamide]",3.48 µM
18,"O=C(Nc1nccs1)c1ccc(N2CCOCC2)c([N+](=O)[O-])c1 [4-morpholin-4-yl-3-nitro-N-(1,3-thiazol-2-yl)benzamide]",42.1 µM
19,"O=C(O)c1ccc(N=Cc2c(O)ccc3oc4c(c23)CCCC4)cc1 [4-{[1-(2-Hydroxy-6,7,8,9-tetrahydro-dibenzofuran-1-yl)-meth-(E)-ylidene]-amino}-benzoic acid]",6.2 µM
20,"COc1cc(-c2cc(=O)c3c(O)c(OC)c(OC)c(O)c3o2)ccc1O [5,8-dihydroxy-2-(4-hydroxy-3-methoxy-phenyl)-6,7-dimethoxy-chromone]",9.68 µM
21,COc1cc(C=C2SC(Nc3ccccc3OC)=NC2=O)ccc1O [5-(4-Hydroxy-3-methoxy-benzylidene)-2-(2-methoxy-phenylimino)-thiazolidin-4-one],4 µM
22,"COc1ccc(-c2nc(-c3ccccn3)no2)cc1 [5-(4-methoxyphenyl)-3-(2-pyridinyl)-1,2,4-oxadiazole]",> 120 µM
23,"COc1ccc(C2=CC3=C(Br)C(=O)C(C)(O)C(=O)C3=CO2)cc1 (configuration not stated) [5-bromanyl-3-(4-methoxyphenyl)-7-methyl-7-oxidanyl-isochromene-6,8-dione]",86 µM
24,"O=C(Nc1cccc(-c2cn3cccnc3n2)c1)c1ccc(Br)o1 [5-bromanyl-N-(3-imidazo[1,2-a]pyrimidin-2-ylphenyl)furan-2-carboxamide]",16 µM
25,O=C(Nc1ccccc1-c1ccccc1)c1ccc(Br)o1 [5-bromo-N-(2-phenylphenyl)furan-2-carboxamide],10.8 µM
26,CCN1CCN(c2cc(C)c3cc(NC(=O)c4ccc(Br)o4)ccc3n2)CC1 [5-bromo-N-[2-(4-ethylpiperazin-1-yl)-4-methylquinolin-6-yl]furan-2-carboxamide],18.4 µM

row,SMILES,EC50
1,"Cc1cc(N2C(=O)c3ccc(C(=O)Nc4ccc(O)cc4C(=O)O)cc3C2=O)no1 [5-hydroxy-2-[[[2-(5-methyl-3-isoxazolyl)-1,3-dioxo-5-isoindolyl]-oxomethyl]amino]benzoic acid]",24 µM
2,"O=C(c1ccc2c3n(nc2c1)-c1ccccc1CO3)N1CCOCC1 [5H-indazolo[2,3-a][3,1]benzoxazin-9-yl(4-morpholinyl)methanone]",18.4 µM
3,"O=C(c1ccc2c3n(nc2c1)-c1ccccc1CO3)N1CCCCC1 [5H-indazolo[2,3-a][3,1]benzoxazin-9-yl(piperidin-1-yl)methanone]",> 120 µM
4,c1nc(N2CCCC2)c2[nH]cnc2n1 [6-(1-pyrrolidinyl)-7H-purine],9.71 µM
5,"CCn1c2ccc(C)cc2c2nc3cc(C(=O)O)ccc3nc21 [6-ethyl-9-methylindolo[2,3-b]quinoxaline-2-carboxylic acid]",17.9 µM
6,"C/C=C/Cn1c(SCc2ccc(Cl)cc2)nc2c1c(=O)[nH]c(=O)n2C [7-[(E)-but-2-enyl]-8-[(4-chlorophenyl)methylsulfanyl]-3-methylpurine-2,6-dione]",> 120 µM
7,"O=C1NCCCc2c1oc1ccc(O)cc21 [7-hydroxy-2,3,4,5-tetrahydro-[1]benzofuro[2,3-c]azepin-1-one]",3.71 µM
8,"O=c1ccc2cc3c([nH]c4ccc(Br)cc43)oc-2c1O [9-bromo-4-hydroxy-6H-[1]benzopyrano[2,3-b]indol-3-one]",4.01 µM
9,CCn1c2ccccc2c(=O)c2ccccc21 [10-ethyl-9-acridinone],16.7 µM
10,Cn1c(/N=N/c2ccccc2)nc2ccccc21 [(1-methyl-2-benzimidazolyl)-phenyldiazene],> 120 µM
11,Oc1ccc(/N=C/c2c(O)ccc3ccccc23)cc1 [(1Z)-1-[(4-hydroxyanilino)methylidene]-2-naphthalenone],2.84 µM
12,"N#C/C(=C\c1ccc(O)c(O)c1)C(=O)c1ccc(O)c(O)c1 [(2E)-3-(3,4-dihydroxyphenyl)-2-[(3,4-dihydroxyphenyl)carbonyl]prop-2-enenitrile]",44.9 µM
13,"CCN(CC)c1ccc(/C=C2/C(=O)c3ccc(C(=O)O)cc3C2=O)cc1 [(2Z)-2-[[4-(diethylamino)phenyl]methylidene]-1,3-dioxoindene-5-carboxylic acid]",3.83 µM
14,"O=C1Nc2ccccc2C1C=Nc1ccc2c(c1)OCO2 (configuration not stated) [(3Z)-3-[(1,3-benzodioxol-5-ylamino)methylidene]-1H-indol-2-one]",11.3 µM
15,"O=NCc1c(Nc2ccccc2)nc2ccccn2c1=O [(3Z)-3-[(hydroxyamino)methylene]-2-phenylimino-pyrido[1,2-a]pyrimidin-4-one]",6.22 µM
16,O=C(O)Cc1ccc(N=Cc2c(O)ccc3ccccc23)cc1 [(4-{[(2-hydroxy-1-naphthyl)methylene]amino}phenyl)acetic acid],10.7 µM
17,"COc1cc(C=Nn2c(-c3ccccc3)n[nH]c2=S)ccc1O [(4E)-2-methoxy-4-[[(3-phenyl-5-sulfanylidene-1H-1,2,4-triazol-4-yl)amino]methylidene]cyclohexa-2,5-dien-1-one]",7.09 µM
18,"COc1cc(CN=Nc2ccc(C(F)(F)F)cn2)ccc1O [(4E)-2-methoxy-4-[[[5-(trifluoromethyl)-2-pyridinyl]hydrazo]methylidene]-1-cyclohexa-2,5-dienone]",19 µM
19,"COc1cc(C=Nn2c(S)nnc2-c2[nH]nc3c2CCC3)ccc1O [(4E)-2-methoxy-4-[[[5-sulfanylidene-3-(1,4,5,6-tetrahydrocyclopenta[c]pyrazol-3-yl)-1H-1,2,4-triazol-4-yl]amino]methylidene]cyclohexa-2,5-dien-1-one]",10.4 µM
20,"COc1cc(C=Nn2c(C3CCCCC3)n[nH]c2=S)ccc1O [(4E)-4-[[(3-cyclohexyl-5-sulfanylidene-1H-1,2,4-triazol-4-yl)amino]methylidene]-2-methoxy-cyclohexa-2,5-dien-1-one]",22 µM
21,"Oc1ccc(CN=Nc2ccnc3cc(Cl)ccc23)cc1O [(4Z)-4-[[2-(7-chloroquinolin-4-yl)hydrazinyl]methylidene]-2-hydroxycyclohexa-2,5-dien-1-one]",3.05 µM
22,"COc1cc(C=C2SC(N)=NC2=O)ccc1O [(5Z)-2-azanyl-5-[(3-methoxy-4-oxidanyl-phenyl)methylidene]-1,3-thiazol-4-one]",0.936 µM
23,"CCOc1cc(/C=C2\SC(N3CCCC(C)C3)=NC2=O)ccc1O (configuration not stated) [(5Z)-5-[(3-ethoxy-4-hydroxyphenyl)methylidene]-2-(3-methylpiperidin-1-yl)-1,3-thiazol-4-one]",> 120 µM
24,"Nc1nc(N)nc(-c2cc(O)ccc2O)n1 [(6E)-6-(4,6-diamino-1H-1,3,5-triazin-2-ylidene)-4-hydroxycyclohexa-2,4-dien-1-one]",7.05 µM
25,"Oc1ccccc1-c1nc(NCCN2CCOCC2)c2ccccc2n1 [(6E)-6-[4-(2-morpholin-4-ylethylamino)-1H-quinazolin-2-ylidene]cyclohexa-2,4-dien-1-one]",14.3 µM
26,"CCNc1nc(N)nc(-c2cc(Cl)ccc2O)n1 [(6E)-6-[6-amino-4-(ethylamino)-1H-1,3,5-triazin-2-ylidene]-4-chloro-1-cyclohexa-2,4-dienone]",5.04 µM
